Data as given in ChEMBL document CHEMBL1201862, “PubChem BioAssay data set” (2004).
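Compound exposure: 48 hours, 5 concentrations, 96-well plates. The concentration for 50% growth inhibition is given as GI50.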 Activity calls are given as the source filed them. Cut-off read from the data, not from the text of the source: active = GI50 up to about 1.1 µM and inactive = higher.

Tests used:
Experiment in all cases: growth of human tumour cells (NCI), 48 h
IGROV-1 = tested on: IGROV-1
A498 = tested on: A498
OVCAR-5 = tested on: OVCAR-5
KM12 = tested on: KM12
MDA-MB-435 = tested on: MDA-MB-435
HOP-62 = tested on: HOP-62
RPMI-8226 = tested on: RPMI-8226
OVCAR-8 = tested on: OVCAR-8
Malme-3M = tested on: Malme-3M
NCI-H522 = tested on: NCI-H522
SF-268 = tested on: SF-268
ACHN = tested on: ACHN
SN12C = tested on: SN12C
SK-MEL-2 = tested on: SK-MEL-2
SR = tested on: SR
A549 = tested on: A549
SK-OV-3 = tested on: SK-OV-3
OVCAR-3 = tested on: OVCAR-3
T47D = tested on: T47D
HL-60 = tested on: HL-60

CN(C)c1cccc(-c2cc(=S)c3cc4c(cc3[nH]2)OCO4)c1
GI50 (IGROV-1): 6.38 µM (inactive)
GI50 (A498): > 100 µM (inactive)
GI50 (OVCAR-5): > 64.9 µM (inactive)
GI50 (KM12): 5.13 µM (inactive)
GI50 (MDA-MB-435): 1.76 µM (inactive)
GI50 (HOP-62): > 27.5 µM (inactive)
GI50 (RPMI-8226): > 21.1 µM (inactive)
GI50 (OVCAR-8): 6.43 µM (inactive)
GI50 (Malme-3M): 8.28 µM (inactive)
GI50 (NCI-H522): 12.6 µM (inactive)
GI50 (SF-268): > 61.2 µM (inactive)
GI50 (ACHN): 7.93 µM (inactive)
GI50 (SN12C): 16.4 µM (inactive)
GI50 (SK-MEL-2): 24.4 µM (inactive)
GI50 (SR): 4.95 µM (inactive)
GI50 (A549): 4.85 µM (inactive)
GI50 (SK-OV-3): 6.14 µM (inactive)
GI50 (OVCAR-3): 8.67 µM (inactive)
GI50 (T47D): 6.87 µM (inactive)

CCc1nc(N)nc(N)c1-c1ccc(Cc2ccccc2)c([N+](=O)[O-])c1
GI50 (IGROV-1): 0.0702 µM (active)
GI50 (A498): 3.05 µM (inactive)
GI50 (OVCAR-5): > 55 µM (inactive)
GI50 (KM12): 0.0762 µM (active)
GI50 (MDA-MB-435): < 0.01 µM (active)
GI50 (HOP-62): 0.173 µM (active)
GI50 (RPMI-8226): 0.0622 µM (active)
GI50 (OVCAR-8): < 0.0153 µM (active)
GI50 (NCI-H522): 0.16 µM (active)
GI50 (SF-268): 0.0192 µM (active)
GI50 (ACHN): < 0.01 µM (active)
GI50 (SN12C): 0.247 µM (active)
GI50 (SK-MEL-2): 33.9 µM (inactive)
GI50 (SR): < 0.01 µM (active)
GI50 (A549): < 0.01 µM (active)
GI50 (SK-OV-3): 7.87 µM (inactive)
GI50 (OVCAR-3): 0.873 µM (active)
GI50 (HL-60): < 0.01 µM (active)
GI50 (T47D): 6.95 µM (inactive)

Cc1cc(C)c(P2C(=C(O[Si](C(C)C)(C(C)C)C(C)C)C(C)(C)C)C2(c2ccccc2)c2ccccc2)c(C)c1 (configuration not stated)
GI50 (IGROV-1): > 100 µM (inactive)
GI50 (A498): > 100 µM (inactive)
GI50 (OVCAR-5): > 100 µM (inactive)
GI50 (KM12): 94 µM (inactive)
GI50 (MDA-MB-435): > 100 µM (inactive)
GI50 (HOP-62): > 100 µM (inactive)
GI50 (RPMI-8226): 62.8 µM (inactive)
GI50 (OVCAR-8): > 100 µM (inactive)
GI50 (NCI-H522): 62.1 µM (inactive)
GI50 (SF-268): > 100 µM (inactive)
GI50 (ACHN): > 100 µM (inactive)
GI50 (SN12C): > 100 µM (inactive)
GI50 (SK-MEL-2): > 100 µM (inactive)
GI50 (SR): 86.3 µM (inactive)
GI50 (A549): 61.8 µM (inactive)
GI50 (SK-OV-3): > 100 µM (inactive)
GI50 (OVCAR-3): > 100 µM (inactive)
GI50 (HL-60): > 100 µM (inactive)
GI50 (T47D): > 100 µM (inactive)

CNc1cc([N+](=O)[O-])ccc1C(=O)N1CCC[C@H]1CO
GI50 (IGROV-1): > 100 µM (inactive)
GI50 (A498): > 100 µM (inactive)
GI50 (OVCAR-5): > 100 µM (inactive)
GI50 (KM12): > 100 µM (inactive)
GI50 (MDA-MB-435): > 100 µM (inactive)
GI50 (HOP-62): > 100 µM (inactive)
GI50 (RPMI-8226): > 100 µM (inactive)
GI50 (OVCAR-8): > 100 µM (inactive)
GI50 (NCI-H522): > 100 µM (inactive)
GI50 (SF-268): 8.83 µM (inactive)
GI50 (ACHN): > 100 µM (inactive)
GI50 (SN12C): > 100 µM (inactive)
GI50 (SK-MEL-2): > 100 µM (inactive)
GI50 (SR): 44.3 µM (inactive)
GI50 (A549): > 100 µM (inactive)
GI50 (SK-OV-3): > 100 µM (inactive)
GI50 (OVCAR-3): > 100 µM (inactive)
GI50 (HL-60): > 100 µM (inactive)
GI50 (T47D): > 100 µM (inactive)

COc1cc2c(cc1O)NC(=O)[C@@H]1C[C@@H](O)CN1C2=O
GI50 (IGROV-1): > 100 µM (inactive)
GI50 (A498): > 100 µM (inactive)
GI50 (OVCAR-5): > 100 µM (inactive)
GI50 (KM12): 53.6 µM (inactive)
GI50 (MDA-MB-435): 91.6 µM (inactive)
GI50 (HOP-62): 27.4 µM (inactive)
GI50 (RPMI-8226): 45.6 µM (inactive)
GI50 (OVCAR-8): 98.2 µM (inactive)
GI50 (Malme-3M): > 100 µM (inactive)
GI50 (NCI-H522): 33.8 µM (inactive)
GI50 (SF-268): 88.1 µM (inactive)
GI50 (ACHN): 74.6 µM (inactive)
GI50 (SN12C): > 100 µM (inactive)
GI50 (SK-MEL-2): > 100 µM (inactive)
GI50 (SR): 39.9 µM (inactive)
GI50 (A549): > 100 µM (inactive)
GI50 (SK-OV-3): > 100 µM (inactive)
GI50 (OVCAR-3): 29.2 µM (inactive)
GI50 (T47D): > 100 µM (inactive)

CCOC(=O)C(NS(=O)(=O)c1ccccc1)(C(F)(F)F)P(=O)(OCC(C)C)OCC(C)C (configuration not stated)
GI50 (IGROV-1): > 100 µM (inactive)
GI50 (A498): > 100 µM (inactive)
GI50 (OVCAR-5): > 100 µM (inactive)
GI50 (KM12): > 100 µM (inactive)
GI50 (MDA-MB-435): > 100 µM (inactive)
GI50 (HOP-62): > 100 µM (inactive)
GI50 (RPMI-8226): > 100 µM (inactive)
GI50 (OVCAR-8): > 100 µM (inactive)
GI50 (Malme-3M): > 100 µM (inactive)
GI50 (NCI-H522): > 100 µM (inactive)
GI50 (SF-268): > 100 µM (inactive)
GI50 (ACHN): > 100 µM (inactive)
GI50 (SN12C): > 100 µM (inactive)
GI50 (SR): > 100 µM (inactive)
GI50 (A549): > 100 µM (inactive)
GI50 (SK-OV-3): > 100 µM (inactive)
GI50 (OVCAR-3): > 100 µM (inactive)
GI50 (HL-60): > 100 µM (inactive)
GI50 (T47D): > 100 µM (inactive)

O=c1c2cc([N+](=O)[O-])ccc2n2n1Cc1ccccc1C2
GI50 (IGROV-1): > 100 µM (inactive)
GI50 (A498): 63.8 µM (inactive)
GI50 (KM12): > 100 µM (inactive)
GI50 (MDA-MB-435): > 100 µM (inactive)
GI50 (HOP-62): > 100 µM (inactive)
GI50 (RPMI-8226): > 100 µM (inactive)
GI50 (OVCAR-8): > 100 µM (inactive)
GI50 (Malme-3M): > 100 µM (inactive)
GI50 (NCI-H522): 64.6 µM (inactive)
GI50 (SF-268): > 100 µM (inactive)
GI50 (ACHN): > 100 µM (inactive)
GI50 (SN12C): > 100 µM (inactive)
GI50 (SR): 87.3 µM (inactive)
GI50 (A549): 79.3 µM (inactive)
GI50 (SK-OV-3): > 100 µM (inactive)
GI50 (OVCAR-3): > 100 µM (inactive)
GI50 (HL-60): > 100 µM (inactive)
GI50 (T47D): 65.5 µM (inactive)
